Experimental data as given in patent US20240174717A1, “AFFINITY AGENTS” (Avitide LLC, priority 2021, published 2024).
Bridges are numbered along the chain shown (N, C = ends). [ ]: non-standard residue; d: D form. (Peg)3 = 12-amino-4,7,10-trioxadodecanoic acid subunits; PEG3 = NCCOCCOCCOCCC(=O)O; code 4 = not defined here; Dap = NC[C@H](N)C(=O)O

Legend:
exosomes = experiment: Filter plate static binding experiment: affinity capture of exosomes by resins; conditions: ligand conjugated to A50 beads, load 1E10 particles/mL in PBST, 60 min
Procedure: A filter plate binding experiment using Durapore Membrane.
Resins were prepared by conjugating ligands to A50 beads.

[1] = Stability of affinity resin towards sodium hydroxide (static binding before and after treatment); type: physicochemical; conditions: 0.1 M NaOH for 18 hours, then static binding experiment vs untreated resin
Procedure: Resin comprising SEQ ID No: 43 was incubated with 0.1 M NaOH for 18 hours, washed and a static binding experiment was conducted as described in example 5.

| Substance | Ave Capture (%) (exosomes; ligand density 7.4 mg/mL) | Ave Capture (%) (exosomes; ligand density 11.2 mg/mL) | stability of resin towards sodium hydroxide [1] | Ave Capture (%) (exosomes; ligand density 7.7 mg/mL) | Ave Capture (%) (exosomes; ligand density 9.8 mg/mL) |
| --- | --- | --- | --- | --- | --- |
| Ac-NYWR5VWFPHAQG2VSTA-(Peg)3K-Amide (Ac-NYWRDVWFPHAQG[Dap]VSTA[(Peg)3]K-NH2; lactam 5-14) [SEQ ID No. 43] | 89 | 98 | stable towards 0.1 M NaOH | – | – |
| Ac-NYWR5VWFPHAQG4VSTA-(Peg)3K-Amide (Ac-NYWRDVWFPHAQG[code 4]VSTA[PEG3]K-NH2; lactam 5-14; not fully specified (some residues); printed as Ac-NYWR5VWFPHAQG4VSTA-(Peg)3K-Amide; reading uncertain) [SEQ ID No. 28] | – | – | – | 38 | 97 |
